Bridge positions count the residues as written; N and C are the ends. Square brackets hold non-standard residues; d marks the D form. Triazole bridges read from a SMILES are 1,4-linked. Peptide text beside a SMILES is read from it. * marks the point of attachment. Val(Nα-amidino) = CC(C)[C@H](NC(=N)N)C(=O)*; Pro(4R-NH2) = N[C@H]1CN[C@H](C(=O)O)C1; Aha = [N-]=[N+]=NCC[C@H](N)C(=O)O; Hyp = O=C(O)[C@@H]1C[C@@H](O)CN1; aThr = C[C@H](O)[C@H](N)C(=O)O; Pen = CC(C)(S)[C@H](N)C(=O)O; dDab = NCC[C@@H](N)C(=O)O; Pra = C#CC[C@H](N)C(=O)O; Dab = NCC[C@H](N)C(=O)O

8 compounds from patent US20230295234A1, “ANTIMICROBIAL PEPTIDOMIMETICS” (SPEXIS AG, priority 2020, published 2023) can be followed below.

Data set [1] has as its system human red blood cells (hRBC). Briefly: Hemolysis of human red blood cells. In kind it is cell-based. To be noted: red cells of human, 1 h. A digest of the protocol:
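Percent hemolysis is OD540 of peptide-treated supernatant relative to water-lysed cells. Each peptide was tested at 200 μg/mL against 20% (v/v) washed human erythrocytes. Incubation was 1 h at 37 °C, 300 rpm.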

The test system of data set [2] is Escherichia coli ATCC 25922. To be noted: ATCC 25922. The essentials: (§1)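 First, bacterial colonies are suspended in saline and adjusted to 0.5 McFarland. Next, the suspension is diluted into cation-adjusted Mueller-Hinton II broth (approx. 5×10^5 CFU/mL). Finally, it is added to two-fold serially diluted peptide, with polysorbate 80 at 0.002% final.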
Data set [3] concerns Klebsiella pneumoniae SSI3010. To be noted: SSI3010. The essentials:
as §1

In data set [4] the test system is Escherichia coli MCR-1 Af 45. The note with it: Mueller-Hinton broth II, 18-20 hours at 35° C. The essentials: as §1

For the compound `CC[C@H](C)[C@H](NC(=O)[C@@H]1C[C@@H](O)CN1C(=O)[C@@H](NC(=N)N)C(C)C)C(=O)N[C@H](C(=O)N[C@@H](Cc1ccc(O)cc1)C(=O)N[C@@H]1C(=O)N[C@@H](CC(N)=O)C(=O)N[C@@H](CCCNC(=N)N)C(=O)N[C@@H](CCN)C(=O)N[C@@H](CO)C(=O)N[C@H](CCN)C(=O)N[C@@H](CCCCN)C(=O)N[C@H](C(=O)N[C@@H](CCN)C(=O)N[C@@H](CCCN)C(=O)N[C@@H](Cc2ccc(O)cc2)C(=O)O)CSSC1(C)C)[C@@H](C)O` [Example 198] (HELM PEPTIDE1{[CC(C)[C@H](NC(=N)N)C(=O)[*:2]].[Hyp].I.T.Y.[Pen].N.R.[Dab].S.[NCC[C@@H](N[*:1])C(=O)[*:2]].K.C.[Dab].[Orn].Y}$PEPTIDE1,PEPTIDE1,6:R3-13:R3$$$V2.0), the “Hemolysis at 0.2 g/L” value in data set [1] was found to be 0%. In addition, the “Escherichia coli ATCC 25922 MIC” value in data set [2] was determined as 0.125 µg/mL. Besides, the “Klebsiella pneumoniae SSI3010 MIC” value in data set [3] came out at 0.125 µg/mL. Besides, in data set [4], the “Escherichia coli MCR-1 Af 45 MIC” value came out at 0.0625 µg/mL.
Take `CC[C@H](C)[C@H](NC(=O)[C@@H]1C[C@@H](N)CN1C(=O)[C@@H](NC(=N)N)C(C)C)C(=O)N[C@H](C(=O)N[C@@H](Cc1ccc(O)cc1)C(=O)N[C@@H]1C(=O)N[C@@H](CC(N)=O)C(=O)N[C@@H](CCCNC(=N)N)C(=O)N[C@@H](CCN)C(=O)N[C@@H]([C@@H](C)O)C(=O)N[C@H](CCN)C(=O)N[C@@H](CCCCN)C(=O)N[C@H](C(=O)N[C@@H](Cc2ccc(O)cc2)C(=O)N[C@@H](CCCNC(=N)N)C(=O)N[C@@H](Cc2ccc(O)cc2)C(=O)O)CSSC1(C)C)[C@@H](C)O` [Example 199] ({Val(Nα-amidino)}-[Pro(4R-NH2)]ITY[Pen]NR[Dab]T[dDab]KCYRY-OH; disulfide 5-12): the “Hemolysis at 0.2 g/L” value in data set [1] is recorded as 0%. Also, the “Escherichia coli ATCC 25922 MIC” value in data set [2] came to 0.25 µg/mL. Also, the “Klebsiella pneumoniae SSI3010 MIC” value in data set [3] stood at 0.25 µg/mL. Moreover, the “Escherichia coli MCR-1 Af 45 MIC” value in data set [4] came to 0.125 µg/mL.
`CC[C@H](C)[C@H](NC(=O)[C@@H](NC(=O)[C@@H]1C[C@@H](N)CN1C(=O)[C@@H](NC(=N)N)C(C)C)[C@@H](C)CC)C(=O)N[C@@H](Cc1ccc(O)cc1)C(=O)N[C@@H]1C(=O)N[C@@H](CC(N)=O)C(=O)N[C@@H](CCCNC(=N)N)C(=O)N[C@@H](CCN)C(=O)N[C@@H]([C@@H](C)O)C(=O)N[C@H](CCN)C(=O)N[C@@H](CCCCN)C(=O)N[C@H](C(=O)N[C@@H](Cc2ccc(O)cc2)C(=O)N[C@@H](CCCNC(=N)N)C(=O)N[C@@H](Cc2ccc(O)cc2)C(=O)O)CSSC1(C)C` [Example 200] ({Val(Nα-amidino)}-[Pro(4R-NH2)]IIY[Pen]NR[Dab]T[dDab]KCYRY-OH; disulfide 5-12): the “Hemolysis at 0.2 g/L” value in data set [1] was determined as 0%. For the same compound, in data set [2], the “Escherichia coli ATCC 25922 MIC” value is 0.5 µg/mL. Besides, the “Klebsiella pneumoniae SSI3010 MIC” value in data set [3] was found to be 0.125 µg/mL. The “Escherichia coli MCR-1 Af 45 MIC” value in data set [4] amounted to 0.125 µg/mL.
As to `CC[C@H](C)[C@H](NC(=O)[C@@H]1C[C@@H](O)CN1C(=O)[C@@H](NC(=N)N)C(C)C)C(=O)N[C@H](C(=O)N[C@@H](Cc1ccc(O)cc1)C(=O)N[C@@H]1C(=O)N[C@@H](CC(N)=O)C(=O)N[C@@H](CCCNC(=N)N)C(=O)N[C@@H](CCN)C(=O)N[C@@H]([C@@H](C)O)C(=O)N[C@H](CCN)C(=O)N[C@@H](CCCCN)C(=O)N[C@H](C(=O)N[C@@H](Cc2ccc(O)cc2)C(=O)N[C@@H](CCCNC(=N)N)C(=O)N[C@@H](Cc2ccc(O)cc2)C(=O)O)CSSC1(C)C)[C@H](C)O` [Example 201] ({Val(Nα-amidino)}-[Hyp]I[aThr]Y[Pen]NR[Dab]T[dDab]KCYRY-OH; disulfide 5-12), in data set [1], the “Hemolysis at 0.2 g/L” value was 0%. The “Escherichia coli ATCC 25922 MIC” value in data set [2] was 0.5 µg/mL. The “Klebsiella pneumoniae SSI3010 MIC” value in data set [3] came to 0.5 µg/mL. The “Escherichia coli MCR-1 Af 45 MIC” value in data set [4] was found to be 0.25 µg/mL.
Consider `CC[C@H](C)[C@H](NC(=O)[C@@H](NC(=O)[C@@H]1CCCN1C(=O)[C@@H](N=C(N(C)C)N(C)C)C(C)C)[C@@H](C)CC)C(=O)N[C@@H](Cc1ccc(O)cc1)C(=O)N[C@H]1CSSC[C@@H](C(=O)N[C@@H](CCN)C(=O)N[C@@H](CCCNC(=N)N)C(=O)N[C@@H](Cc2ccc(O)cc2)C(=O)O)NC(=O)[C@H](CCCCN)NC(=O)[C@@H](CCN)NC(=O)[C@H]([C@@H](C)O)NC(=O)[C@H](CCN)NC(=O)[C@H](CCCNC(=N)N)NC(=O)[C@H](CC(N)=O)NC1=O` [Example 202] (HELM PEPTIDE1{[CC(C)[C@H](N=C(N(C)C)N(C)C)C(=O)[*:2]].P.I.I.Y.C.N.R.[Dab].T.[NCC[C@@H](N[*:1])C(=O)[*:2]].K.C.[Dab].R.Y}$PEPTIDE1,PEPTIDE1,6:R3-13:R3$$$V2.0), for which the “Hemolysis at 0.2 g/L” value in data set [1] is listed as 0%. For the same compound, in data set [2], the “Escherichia coli ATCC 25922 MIC” value is 0.0625 µg/mL. Moreover, the “Klebsiella pneumoniae SSI3010 MIC” value in data set [3] is 0.25 µg/mL. Further, in data set [4], the “Escherichia coli MCR-1 Af 45 MIC” value came to 0.0625 µg/mL.
`CC[C@H](C)[C@H](NC(=O)[C@@H]1C[C@@H](O)CN1C(=O)[C@@H](N=C(N(C)C)N(C)C)C(C)C)C(=O)N[C@H](C(=O)N[C@@H](Cc1ccc(O)cc1)C(=O)N[C@@H]1C(=O)N[C@@H](CC(N)=O)C(=O)N[C@@H](CCCNC(=N)N)C(=O)N[C@@H](CCN)C(=O)N[C@@H]([C@@H](C)O)C(=O)N[C@H](CCN)C(=O)N[C@@H](CCCCN)C(=O)N[C@H](C(=O)N[C@@H](CCN)C(=O)N[C@@H](CCCNC(=N)N)C(=O)N[C@@H](Cc2ccc(O)cc2)C(=O)O)CSSC1(C)C)[C@@H](C)O` [Example 203] (HELM PEPTIDE1{[CC(C)[C@H](N=C(N(C)C)N(C)C)C(=O)[*:2]].[Hyp].I.T.Y.[Pen].N.R.[Dab].T.[NCC[C@@H](N[*:1])C(=O)[*:2]].K.C.[Dab].R.Y}$PEPTIDE1,PEPTIDE1,6:R3-13:R3$$$V2.0): in data set [1], the “Hemolysis at 0.2 g/L” value is on record as 0%. Besides, the “Escherichia coli ATCC 25922 MIC” value in data set [2] stood at 0.25 µg/mL. For the same compound, in data set [3], the “Klebsiella pneumoniae SSI3010 MIC” value worked out at 0.5 µg/mL. Besides, the “Escherichia coli MCR-1 Af 45 MIC” value in data set [4] turned out to be 0.125 µg/mL.
The like results for `CC[C@H](C)[C@H](NC(=O)[C@@H](NC(=O)[C@@H]1C[C@@H](O)CN1C(=O)[C@@H](N)C(C)C)[C@@H](C)CC)C(=O)N[C@@H](Cc1ccc(O)cc1)C(=O)N[C@H]1Cc2cn(nn2)CC[C@@H](C(=O)N[C@@H](CCN)C(=O)N[C@@H](CCCNC(=N)N)C(=O)N[C@@H](Cc2ccc(O)cc2)C(=O)O)NC(=O)[C@H](CCCCN)NC(=O)[C@@H](CCN)NC(=O)[C@H]([C@@H](C)O)NC(=O)[C@H](CCN)NC(=O)[C@H](CCCNC(=N)N)NC(=O)[C@H](CC(N)=O)NC1=O` [Example 204] (H-V[Hyp]IIY[Pra]NR[Dab]T[dDab]K[Aha][Dab]RY-OH; triazole 6-13) were, in that order, 0%, 0.25 µg/mL, 2 µg/mL and 0.25 µg/mL.
The corresponding values for `CC[C@H](C)[C@H](NC(=O)[C@@H](NC(=O)[C@@H]1C[C@@H](O)CN1C(=O)[C@@H](N)C(C)C)[C@@H](C)CC)C(=O)N[C@@H](Cc1ccc(O)cc1)C(=O)N[C@H]1CC(=O)NCC[C@@H](C(=O)N[C@@H](CCN)C(=O)N[C@@H](CCCNC(=N)N)C(=O)N[C@@H](Cc2ccc(O)cc2)C(=O)O)NC(=O)[C@H](CCCCN)NC(=O)[C@@H](CCN)NC(=O)[C@H]([C@@H](C)O)NC(=O)[C@H](CCN)NC(=O)[C@H](CCCNC(=N)N)NC(=O)[C@H](CC(N)=O)NC1=O` [Example 205] (HELM PEPTIDE1{V.[Hyp].I.I.Y.D.N.R.[Dab].T.[NCC[C@@H](N[*:1])C(=O)[*:2]].K.[Dab].[Dab].R.Y}$PEPTIDE1,PEPTIDE1,6:R3-13:R3$$$V2.0) are 0%, 0.125 µg/mL, 0.25 µg/mL and 0.125 µg/mL.
